Drawing on patent publication US11542255B2, “Sulfonylureas and sulfonylthioureas as NLRP3 inhibitors” (Inflazome Limited, priority 2017, dated 2023), this text covers IC50 for 24 molecules.

Assay [1] addresses T1, NLRP3 (Homo sapiens, UniProt Q96P20). The experiment in a line: THP-1 cells pyroptosis assay (LPS + nigericin, resazurin readout). In kind it is cell-based. Further details: Seed THP-1 cells (25,000 cells/well) containing 1.0 μg/ml LPS in 40 μl of RPMI medium; host or cells: THP-1 cells. Particulars: NLRP3 inhibitory activity, 1.0 μg/ml LPS, 5 μM nigericin. The gist of the method: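 LPS-primed (1 μg/ml) THP-1 cells, 25,000/well in serum-free RPMI, given compound (8-point half-log, 10 μM top; 0.1% DMSO) for 3 h at 37 °C, then nigericin 5 μM for 1 h. Viability by resazurin (100 μM, 1-2 h), Ex 560/Em 590 nm; IC50 from 4-parameter variable-slope fit.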
A general note: The colour change of resazurin is a common sign of viable cells or microbes.

For assay [2], the target named is T1, NLRP3. The assay can be described thus: Human whole blood IL1β release assay (LPS + nigericin, AlphaLisa IL-1β). In kind it is cell-based. Further details: Human whole blood in Li-heparin tubes was obtained from healthy donors from a volunteer donor panel; from tissue; host or cells: human whole blood from healthy donors. Particulars: NLRP3 inhibitory activity, 1 μg/ml LPS, 10 μM nigericin, IL-1β release, read-out: HWB IC50. The gist of the method:
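Donor human whole blood (Li-heparin) was primed with 1 μg/mL LPS while incubated with compound (8-point half-log, 10 μM top, 0.1% DMSO) for 3 h at 37° C., then stimulated with 10 μM nigericin for 1 h. Supernatant IL-1β measured by AlphaLISA; IC50 from 4-parameter nonlinear fit.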
(Bead proximity is the source of the signal in Alpha formats.)

Where a name gives a salt, the structure may show the parent alone.

T1 sequence (Q96P20 whole entry): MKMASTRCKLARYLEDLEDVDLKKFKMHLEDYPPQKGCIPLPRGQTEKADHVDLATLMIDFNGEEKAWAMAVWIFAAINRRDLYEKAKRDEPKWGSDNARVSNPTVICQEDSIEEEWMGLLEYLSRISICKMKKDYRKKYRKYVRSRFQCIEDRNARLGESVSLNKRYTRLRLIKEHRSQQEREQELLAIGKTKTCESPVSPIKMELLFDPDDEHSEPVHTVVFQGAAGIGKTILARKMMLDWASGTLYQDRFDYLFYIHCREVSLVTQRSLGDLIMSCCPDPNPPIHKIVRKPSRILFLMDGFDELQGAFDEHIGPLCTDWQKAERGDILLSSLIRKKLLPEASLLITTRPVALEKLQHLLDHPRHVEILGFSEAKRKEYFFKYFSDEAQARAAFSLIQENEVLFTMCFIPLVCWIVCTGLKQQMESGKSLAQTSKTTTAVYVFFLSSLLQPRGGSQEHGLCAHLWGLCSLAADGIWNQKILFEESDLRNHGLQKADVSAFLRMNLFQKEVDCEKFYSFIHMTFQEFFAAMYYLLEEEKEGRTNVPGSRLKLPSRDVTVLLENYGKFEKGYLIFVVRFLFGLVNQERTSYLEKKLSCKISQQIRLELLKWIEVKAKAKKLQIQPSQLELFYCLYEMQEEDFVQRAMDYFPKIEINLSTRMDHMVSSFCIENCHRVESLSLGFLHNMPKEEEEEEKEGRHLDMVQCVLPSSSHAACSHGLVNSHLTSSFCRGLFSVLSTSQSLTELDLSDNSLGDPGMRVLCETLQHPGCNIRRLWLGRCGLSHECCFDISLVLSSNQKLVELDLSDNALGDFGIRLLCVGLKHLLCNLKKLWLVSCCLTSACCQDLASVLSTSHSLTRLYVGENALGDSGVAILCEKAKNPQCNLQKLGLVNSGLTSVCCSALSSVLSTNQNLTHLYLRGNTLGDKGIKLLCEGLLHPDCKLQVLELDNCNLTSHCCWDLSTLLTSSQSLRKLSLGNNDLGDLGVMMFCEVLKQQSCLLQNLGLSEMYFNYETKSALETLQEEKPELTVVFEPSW

The IC50 is the concentration needed to halve the response being measured. For `CC(C)n1nc(S(=O)(=O)NC(=O)Nc2c3c(cc4c2CCC4)CCC3)cc1CN(C)C` [Example 68, 5-((Dimethylamino)methyl)-N-((1,2,3,5,6,7-hexahydro-s-indacen-4-yl)carbamoyl)-1-isopropyl-1H-pyrazole-3-sulfonamide], the figures for the IC50 on NLRP3 [1] and at NLRP3 [2] were below 40 nM and 400 to 800 nM, respectively.

In the case of `CCC(c1cc(S(=O)(=O)NC(=O)Nc2c3c(cc4c2CCC4)CCC3)nn1C)N(C)C` (stereo not drawn) [Example 74, 5-(1-(Dimethylamino)propyl)-N-((1,2,3,5,6,7-hexahydro-s-indacen-4-yl)carbamoyl)-1-methyl-1H-pyrazole-3-sulfonamide], the IC50 is below 40 nM on NLRP3 [1] and below 400 nM on NLRP3 [2].

Turning to `CN1CC(O)(c2cc(S(=O)(=O)NC(=O)Nc3c4c(cc5c3CCC5)CCC4)nn2C)C1` [Example 75, N-((1,2,3,5,6,7-Hexahydro-s-indacen-4-yl)carbamoyl)-5-(3-hydroxy-1-methylazetidin-3-yl)-1-methyl-1H-pyrazole-3-sulfonamide], the IC50 on NLRP3 [1] fell in the range of 160 to 640 nM; at NLRP3 [2], 800 to 1600 nM.

`Cn1nc(S(=O)(=O)NC(=O)Nc2c3c(cc4c2CCC4)CCC3)cc1CN1CCCC1` [Example 78, N-((1,2,3,5,6,7-Hexahydro-s-indacen-4-yl)carbamoyl)-1-methyl-5-(pyrrolidin-1-ylmethyl)-1H-pyrazole-3-sulfonamide, Sodium Salt]: the IC50 is 40 to 160 nM at NLRP3 [1] and 400 to 800 nM on NLRP3 [2].

As for `CC(C)c1cc(F)cc(C(C)C)c1NC(=O)NS(=O)(=O)c1cc(CN2CC(F)C2)n(C)n1` [Example 79, N-((4-Fluoro-2,6-diisopropylphenyl)carbamoyl)-5-((3-fluoroazetidin-1-yl)methyl)-1-methyl-1H-pyrazole-3-sulfonamide], the IC50 was 640 to 2560 nM at NLRP3 [1] and 800 to 1600 nM on NLRP3 [2].

On to `Cn1nc(S(=O)(=O)NC(=O)Nc2c3c(cc4c2CCC4)CCC3)cc1CN1CC(F)C1` [Example 80, 5-((3-Fluoroazetidin-1-yl)methyl)-N-((1,2,3,5,6,7-hexahydro-s-indacen-4-yl)carbamoyl)-1-methyl-1H-pyrazole-3-sulfonamide], for which the IC50 on NLRP3 [1] lay in the range of 160 to 640 nM; at NLRP3 [2] it was 1600 to 3200 nM.

On to `CC(C)c1cc(F)cc(C(C)C)c1NC(=O)NS(=O)(=O)c1cc(CN2CCCC2)n(C)n1` [Example 81, N-((4-Fluoro-2,6-diisopropylphenyl)carbamoyl)-1-methyl-5-(pyrrolidin-1-ylmethyl)-1H-pyrazole-3-sulfonamide], for which the figures for the IC50 at NLRP3 [1] and at NLRP3 [2] were 160 to 640 nM and below 400 nM, respectively.

As to `CCN(CC)Cc1cc(S(=O)(=O)NC(=O)Nc2c3c(cc4c2CCC4)CCC3)nn1C` [Example 82, 5-((Diethylamino)methyl)-N-((1,2,3,5,6,7-hexahydro-s-indacen-4-yl)carbamoyl)-1-methyl-1H-pyrazole-3-sulfonamide, Sodium Salt], the 50% inhibitory concentration (IC50) lay in the range of 40 to 160 nM at NLRP3 [1] and 800 to 1600 nM at NLRP3 [2].

In the case of `CCN(CC)Cc1cc(S(=O)(=O)NC(=O)Nc2c(C(C)C)cc(F)cc2C(C)C)nn1C` [Example 83, 5-((Diethylamino)methyl)-N-((4-fluoro-2,6-diisopropylphenyl)carbamoyl)-1-methyl-1H-pyrazole-3-sulfonamide, sodium Salt], the results for the IC50 on NLRP3 [1] and on NLRP3 [2] were 640 to 2560 nM and 400 to 800 nM, respectively.

For the molecule `CC(C)c1cc(F)cc(C(C)C)c1NC(=O)NS(=O)(=O)c1cc(CN(C)C(C)C)n(C)n1` [Example 90, N-((4-Fluoro-2,6-diisopropylphenyl)carbamoyl)-5-((isopropyl(methyl)amino)methyl)-1-methyl-1H-pyrazole-3-sulfonamide, sodium Salt], the IC50 on NLRP3 [1] was 160 to 640 nM; on NLRP3 [2], below 400 nM.

On to `CN(C)C(c1cc(S(=O)(=O)NC(=O)Nc2c3c(cc4c2CCC4)CCC3)nn1C)C(F)(F)F` (stereo not drawn) [Example 95, 5-(˜(Dimethylamino)-2,2,2-trifluoroethyl)-N-((1,2,3,5,6,7-hexahydro-s-indacen-4-yl)carbamoyl)-1-methyl-1H-pyrazole-3-sulfonamide], for which the IC50 is below 40 nM on NLRP3 [1] and 800 to 1600 nM at NLRP3 [2].

On to `CC(C)n1nc(S(=O)(=O)NC(=O)Nc2c3c(cc4c2CCC4)CCC3)cc1CN(C)CC(F)(F)F` [Example 96, N-((1,2,3,5,6,7-Hexahydro-s-indacen-4-yl)carbamoyl)-1-isopropyl-5-((methyl(2,2,2-trifluoroethyl)amino)methyl)-1H-pyrazole-3-sulfonamide], for which the values for the IC50 at NLRP3 [1] and on NLRP3 [2] were 40 to 160 nM and 3200 to 10000 nM, respectively.

For `COCCN(CCO)C(=O)c1cc(S(=O)(=O)NC(=O)Nc2c3c(cc4c2CCC4)CCC3)nn1C` [Example 102, 3-(N-((1,2,3,5,6,7-Hexahydro-s-indacen-4-yl)carbamoyl)sulfamoyl)-N-(2-hydroxyethyl)-N-(2-methoxyethyl)-1-methyl-1H-pyrazole-5-carboxamide, Partial ammonium Salt], the values for the IC50 at NLRP3 [1] and at NLRP3 [2] were 40 to 160 nM and 400 to 800 nM, respectively.

For the molecule `CN(C)C1(c2cc(S(=O)(=O)NC(=O)Nc3c4c(cc5c3CCC5)CCC4)nn2C)COC1` [Example 115, 5-(3-(Dimethylamino)oxetan-3-yl)-N-((1,2,3,5,6,7-hexahydro-s-indacen-4-yl)carbamoyl)-1-methyl-1H-pyrazole-3-sulfonamide], the IC50 is 160 to 640 nM on NLRP3 [1] and 800 to 1600 nM at NLRP3 [2].

`CC(C)c1cc(F)cc(C(C)C)c1NC(=O)NS(=O)(=O)c1cc(CN(C)CCO)n(C)n1` [Example 116, N-((4-Fluoro-2,6-diisopropylphenyl)carbamoyl)-5-(((2-hydroxyethyl)(methyl)amino)methyl)-1-methyl-1H-pyrazole-3-sulfonamide]: the IC50 at NLRP3 [1] is 160 to 640 nM; at NLRP3 [2] it was below 400 nM.

In the case of `CN(CCO)Cc1cc(S(=O)(=O)NC(=O)Nc2c3c(cc4c2CCC4)CCC3)nn1C` [Example 117, N-((1,2,3,5,6,7-Hexahydro-s-indacen-4-yl)carbamoyl)-5-(((2-hydroxyethyl)(methyl)amino)methyl)-1-methyl-1H-pyrazole-3-sulfonamide], the IC50 on NLRP3 [1] was 40 to 160 nM; on NLRP3 [2], below 400 nM.

Take `COCCN(C)Cc1cc(S(=O)(=O)NC(=O)Nc2c3c(cc4c2CCC4)CCC3)nn1C` [Example 119, N-((1,2,3,5,6,7-Hexahydro-s-indacen-4-yl)carbamoyl)-5-(((2-methoxyethyl)(methyl)amino)methyl)-1-methyl-1H-pyrazole-3-sulfonamide, Sodium Salt]: the values for the IC50 on NLRP3 [1] and on NLRP3 [2] were 160 to 640 nM and 1600 to 3200 nM, respectively.

`CC(C)c1cc(F)cc(C2CCOCC2)c1NC(=O)NS(=O)(=O)c1cc(C(=O)N(C)C)n(C)n1` [Example 126, 3-(N-((4-Fluoro-2-isopropyl-6-(tetrahydro-2H-pyran-4-yl)phenyl)carbamoyl)sulfamoyl)-N,N,1-trimethyl-1H-pyrazole-5-carboxamide, Sodium Salt]: the values for the half-inhibitory concentration (IC50) on NLRP3 [1] and on NLRP3 [2] were 640 to 2560 nM and 400 to 800 nM, respectively.

`CC(C)c1cc(F)cc(-c2cnn(C)c2)c1NC(=O)NS(=O)(=O)c1cc(C(=O)N(C)C)n(C)n1` [Example 128, 3-(N-((4-Fluoro-2-isopropyl-6-(1-methyl-1H-pyrazol-4-yl)phenyl)carbamoyl)sulfamoyl)-N,N,1-trimethyl-1H-pyrazole-5-carboxamide, Sodium Salt]: the results for the IC50 on NLRP3 [1] and at NLRP3 [2] were 640 to 2560 nM and below 400 nM, respectively.

For `CC(C)c1cc(F)cc(-c2cccnc2)c1NC(=O)NS(=O)(=O)c1cc(C(=O)N(C)C)n(C)n1` [Example 134, 3-(N-((4-Fluoro-2-isopropyl-6-(pyridin-3-yl)phenyl)carbamoyl)sulfamoyl)-N,N,1-trimethyl-1H-pyrazole-5-carboxamide, sodium Salt], the IC50 at NLRP3 [1] was 40 to 160 nM; on NLRP3 [2] it was below 400 nM.

Consider `CC(C)c1cc(F)cc(-c2cncnc2)c1NC(=O)NS(=O)(=O)c1cc(C(=O)N(C)C)n(C)n1` [Example 135, 3-(N-((4-Fluoro-2-isopropyl-6-(pyrimidin-5-yl)phenyl)carbamoyl)sulfamoyl)-N,N,1-trimethyl-1H-pyrazole-5-carboxamide, sodium Salt], for which the IC50 on NLRP3 [1] was 160 to 640 nM; on NLRP3 [2], below 400 nM.

In the case of `CCn1nc(S(=O)(=O)NC(=O)Nc2c(-c3cccc(C#N)c3)ccc3c2CCC3)cc1CN(C)C` [Example 173], the figures for the IC50 at NLRP3 [1] and on NLRP3 [2] were 40 to 160 nM and 400 to 800 nM, respectively.

As to `COCCN(CCOC)C(=O)c1cc(S(=O)(=O)NC(=O)Nc2c(-c3ccnc(OC(C)C)c3)cc(F)cc2C(C)C)nn1C` [Example 174, 3-(N-((4-Fluoro-2-(2-isopropoxypyridin-4-yl)-6-isopropyl-phenyl)carbamoyl)sulfamoyl)-N,N-bis(2-methoxyethyl)-1-methyl-1H-pyrazole-5-carboxamide, sodium salt], the results for the concentration for half-maximal inhibition (IC50) at NLRP3 [1] and at NLRP3 [2] were 2560 to 10000 nM and 3200 to 10000 nM, respectively.

With `COCCN(CCOC)C(=O)c1cc(S(=O)(=O)NC(=O)Nc2c(-c3ccnc(OC)c3)ccc3c2CCC3)nn1C` [Example 175, N,N-Bis(2-methoxyethyl)-3-(N-((5-(2-methoxypyridin-4-yl)-2,3-dihydro-1H-inden-4-yl)carbamoyl)sulfamoyl)-1-methyl-1H-pyrazole-5-carboxamide, Sodium Salt], the IC50 at NLRP3 [1] is 160 to 640 nM; on NLRP3 [2] it was below 400 nM.
